Assay results reported in patent US4002623A, “Anti-inflammatory 1-[3-(dialkylamino)propyl]-2-acylaminobenzimidazoles and 2-acylamino-3-[3-(dialkylamino)-propyl]imidazo[4,5-b]pyridines” (Pfizer Inc., priority 1974, dated 1977).

Test: adjuvant arthritis screen (Walz et al.), swelling of the non-injected left hind foot on Day 16
Assay type: in vivo, male inbred Lewis rats
Conditions: Rattus norvegicus, 384 h, daily day -1 through day 15, read-out: Activity Percent Inhibition; for inhibition in vivo at 33 mg/kg: 33 mg./kg. ip; for inhibition in vivo at 20 mg/kg: 20 mg./kg. po; for inhibition in vivo at 10 mg/kg: 10 mg./kg. ip
In short: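 Male inbred Lewis rats (~250 g) were dosed daily from day −1 through day 15 and injected on day 0 with 0.1 cc of 1% Mycobacterium butyricum suspension into the right hind paw. Volume of the uninjected left hind paw on day 16 was measured by mercury plethysmography. Results are % inhibition versus controls.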

| Structure (SMILES) | inhibition in vivo at 33 mg/kg [%] | also measured |
| --- | --- | --- |
| O=C(Nc1nc2ccccc2n1CCCN1CCCCC1)c1ccco1 [Furyl; H; H; drawing 26] | 12 |  |
| CN1CCN(CCCn2c(NC(=O)c3ccccc3)nc3cc(C(F)(F)F)ccc32)CC1 [Phenyl; CF3; H; drawing 24] | 29 |  |
| Cc1cc2nc(NC(=O)c3ccccc3)n(CCCN3CCN(C)CC3)c2cc1C [Phenyl; CH3; CH3; drawing 24, 1-[3-(4-methyl-1-piperazinyl)propyl]-2-benzamido-5,6-dimethylbenzimidazole] |  | inhibition in vivo at 20 mg/kg: 31% |
| CN1CCN(CCCn2c(NC(=O)c3ccccc3)nc3cc(Cl)ccc32)CC1 [Phenyl; Cl; H; drawing 24] | 41 |  |
| Cc1ccc2nc(NC(=O)c3ccccc3)n(CCCN3CCN(C)CC3)c2c1 [Phenyl; H; CH3; drawing 24] |  | inhibition in vivo at 20 mg/kg: 23% |
| CN(C)CCCn1c(NC(=O)c2ccccc2)nc2ccccc21 [Phenyl; H; H; Z = N(CH3)2] | 8 |  |
| O=C(Nc1nc2ccccc2n1CCCN1CCOCC1)c1ccccc1 [Phenyl; H; H; drawing 23] | 15 |  |
| O=C(Nc1nc2ccccc2n1CCCN1CCN(Cc2ccccc2)CC1)c1ccccc1 [Phenyl; H; H; drawing 27] |  | inhibition in vivo at 10 mg/kg: 44% |
| O=C(Nc1nc2ccccc2n1CCCN1CCNCC1)c1ccccc1 [Phenyl; H; H; drawing 28] |  | inhibition in vivo at 10 mg/kg: 19% |
| COc1ccc2c(c1)nc(NC(=O)c1ccccc1)n2CCCN1CCN(C)CC1 [Phenyl; OCH3; H; drawing 24] | 27 |  |
| CN1CCN(CCCn2c(NC(=O)c3ccccc3)nc3cc(S(=O)(=O)N(C)C)ccc32)CC1 [Phenyl; SO2 N(CH3)2; H; drawing 24] |  | inhibition in vivo at 20 mg/kg: 32% |
| O=C(C=Cc1ccccc1)Nc1nc2ccccc2n1CCCN1CCCCC1 [Styryl; H; H; drawing 26] | 33 |  |
| CN1CCN(CCCn2c(NC(=O)c3ccc(-c4ccccc4)cc3)nc3ccccc32)CC1 [p-Phenylphenyl; H; H; drawing 24] | 46 |  |
